Assay results reported in patent US9205064B2, “Methods for the diagnosis of oncological disorders using epimetabolic shifters, multidimensional intracellular molecules, or environmental influencers” (Berg LLC, priority 2009, dated 2015).

How the values were obtained:
Bcl-2 = test: Western blot of Bcl-2 in Skmel-28 cells treated with CoQ10 building block components; format: cell-based
Experimental: (§1) Skmel-28 melanoma cells were cultured in DMEM/F12 supplemented with 5% Fetal Bovine Serum (FBS) and 1× final concentration of Antibiotics. The cells were grown to 85% confluency and treated with building block components for 3, 6, 12 and 24 hours. The cells were then pelleted and a Western blot analysis was performed.
(§2) In the Western Blot Analysis, the cells were pelleted in cold PBS, lysed, and the protein levels were quantified using a BCA protein assay. The whole cell lysate was loaded in a 4% loading 12% running Tris-HCl gel. The proteins were then transferred to a nitrocellulose paper then blocked with a 5% milk Tris-buffered solution for 1 hour. The proteins were then exposed to primary antibodies (Bcl-2 and Caspase-3) overnight. The nitrocellulose paper was then exposed to Pico Chemilluminescent for 5 min and the protein expression was recorded. After exposure, actin was quantified using the same method. Using ImageJ the levels of protein expression were quantified. A t-Test was used to analyze for statistical significance.

Caspase-3 = test: Western blot of Caspase-3 in Skmel-28 cells treated with CoQ10 building block components; format: cell-based
Experimental: as §1, §2

Melanoma cells = test: Cell proliferation assay (live cell count) of building block combinations; format: cell-based
Experimental: This set of experiments used a cell proliferation assay to assess the effect of combining different building block molecules on cell proliferation.
The first study examined the effect of combining 4-Hydroxy-Benzoate with Benzoquinone. Cells were incubated for 48 hours, after which a cell count was performed for the live cells. Each test group was compared to the control, and each combination groups were compared to Benzoquinone control. The compounds were statistically analyzed for the addition of Benzoquinone.
Additional studies were performed testing additional molar ratios. For the first test 4-Hydroxybenzoic were tested at concentrations of 500 nM, 1 μM, and 50 μM. These concentrations were tested in combination with 2,3-Dimethoxy-5-methyl-p-benzoquinone (Benzo). The concentration of Benzo tested were 25 μM, 50 μM, and 100 μM. Melanoma cells were grown to 80% confluency and seeded in 6 well plates at a concentration of 40K cells per well. The cells were treated with CoQ10, 4-Hydroxybenzoate, Benzo, and a combination of 4-Hydroxybenzoate/Benzo.
A T-test was performed with p<0.05 as statistically significant.

[1] = test system: neonatal fibroblast cells; test: Cell proliferation assay (coulter counter); format: cell-based; conditions: HB 500 nM, 5 μM, 25 μM; benzoquinone 25, 50, 100 μM; 24 hours
Experimental: A cell proliferation assay was also performed on neonatal fibroblast cells. The concentrations of HB tested were 500 nM, 5 μM, and 25 μM. HB was also tested in combination with benzoquinone at a concentrations of 25 μM, 50 μM, and 100 μM. Melanoma cells were seeded at 40 k cells per well and were treated for 24 hours. The cells were trypsinized and quantified using a coulter counter.

HDFa cells = test: SeaHorse XF analyzer OCR and ECAR; format: cell-based, human
Description: Environmental influencers (e.g., MIMs or Epi-shifters) may also be identified by changes in cellular energetics. One example of the measurement of cellular energetics are the real-time measures of the consumption of molecular oxygen and/or the change in pH of the media of a cell culture. For example, the ability of a potential epi-shifter to modulate the metabolic state of a cell may be analyzed using, for example, the XF24 Analyzer (Seahorse, Inc.). This technology allows for real time detection of oxygen and pH changes in a monolayer of cells in order to evaluate the bioenergetics of a cell microenvironment. The XF24 Analyzer measures and compares the rates of oxygen consumption (OCR), which is a measure of aerobic metabolism, and extracellular acidification (ECAR), which is a measure of glycolysis, both key indicators of cellular energetics.
(SeaHorse Biosciences Inc, North Billerica, Mass.).
In this experiment, the OCR and extracellular acidification rate (ECAR) in normal cells lines were obtained in the presence and absence of CoQ10 to determine baseline values. It was observed that in its native nutrient environment, the basal OCR rates in normal cells lines are different, and are usually a function of the physiological roles of the cells in the body.
FIGS. 29 and 30 describe the OCR in HDFa and HASMC cells grown in physiologically normal glucose (about 4.6 mM) and high glucose (hyperglycemic) conditions.
Table 53, below, describes the ECAR values (mpH/min) in HDFa cells in the presence or absence of CoQ10 under normoxic and hypoxic conditions at 5.5 mM and 22 mM glucose.

[2] = 500 nM, 1 μM, 25 μM and 50 μM, all time points

SMILES: N[C@@H](Cc1ccc(O)cc1)C(=O)O [L-Tyrosine]
- Bcl-2 expression (Bcl-2; 500 μM and 5 μM, 24 hours): statistically significant decrease

SMILES: C[C@@](O)(CCO)CC(=O)O [Mevalonic Acid, mevalonic acid]
- Bcl-2 expression (Bcl-2; [2]): no significant reduction
- Caspase-3 expression (Caspase-3; [2]): no significant

SMILES: O=C(O)c1ccc(O)cc1 [4-Hydroxybenzoate, 4-hydroxy-benzoate]
- cell number compared to the control (Melanoma cells; 48 hours): significant decrease in cell number
- cell proliferation (Melanoma cells; HB 500 nM, 1 μM, 50 μM, p<0.05): significant decrease in cell proliferation
- reduction in fibroblast cells [1]: did not show a significant reduction

SMILES: CC(=O)SCCNC(=O)CCNC(=O)[C@H](O)C(C)(C)COP(=O)(O)OP(=O)(O)OC[C@H]1O[C@@H](n2cnc3c(N)ncnc32)[C@H](O)[C@@H]1OP(=O)(O)O [Acetyl-CoA]
- Bcl-2 expression (Bcl-2; [2]): no significant observed reduction
- Caspase-3 expression (Caspase-3; [2]): no significant observed

SMILES: COc1cc(C(O)C(=O)O)ccc1O (stereo not drawn) [VMA, 3-methoxy-4-hydroxymandelate]
- apoptotic effect (Bcl-2, Caspase-3) (Bcl-2; 100 nM, 250 nM, 500 nM, 1 μM, 25 μM, 50 μM and 100 μM): no statistically significant apoptotic effect

SMILES: N[C@H](Cc1ccc(O)cc1)C(=O)O [D-Tyrosine]
- Caspase-3 expression (Caspase-3; 5 μM, 12 hour): increase

SMILES: COC1=C(OC)C(=O)C(C/C=C(\C)CC/C=C(\C)CC/C=C(\C)CC/C=C(\C)CC/C=C(\C)CC/C=C(\C)CC/C=C(\C)CC/C=C(\C)CC/C=C(\C)CCC=C(C)C)=C(C)C1=O [compound 31510]
- ECAR (HDFa cells; 50 μM, Hypoxia (5.5 mM)): 5 mpH/min
- ECAR (HDFa cells; 50 μM, Hypoxia (22 mM)): 6 mpH/min
- ECAR (HDFa cells; 50 μM, Normoxia (5.5 mM)): 6 mpH/min
- ECAR (HDFa cells; 50 μM, Normoxia (22 mM)): 5 mpH/min
- ECAR (HDFa cells; 100 μM, Hypoxia (5.5 mM)): 5 mpH/min
- ECAR (HDFa cells; 100 μM, Hypoxia (22 mM)): 8 mpH/min
- ECAR (HDFa cells; 100 μM, Normoxia (5.5 mM)): 6 mpH/min
- ECAR (HDFa cells; 100 μM, Normoxia (22 mM)): 5 mpH/min
